Source: US20230037414A1, “INHIBITORS OF ADRENOMEDULLIN FOR THE TREATMENT OF ACUTE MYELOID LEUKEMIA BY ERADICATING LEUKEMIC STEM CELLS” (INSERM (INSTITUT NATIONAL DE LA SANTÉ ET DE LA RECHERCHE …, priority 2019, published 2023)

Key:
MOLM-14 cells = assay: EC50 experiments (MTS cell viability) on MOLM-14 cells FACS-sorted from xenografted mice; format: cell-based; conditions: Homo sapiens, MOLM-14, 168 h, after one week of in vitro culture
Method: The day before experiment, cells were adjusted to 3×10^5 cells/ml final concentration and plated in a 96-well plate (final volume: […]). To measure half-maximal inhibitory concentration (EC50), increased concentrations of AraC or idarubicin were added to the medium. After two days, 20 µl per well of MTS solution (Promega) was added for two hours and then absorbance was recorded at 490 nm with a 96-well plate reader. The doses that decrease cell viability to 50% (EC50) were analyzed Nonlinear regression log [inhibitor] vs. normalized response-variable slope with GraphPad Prism software.

primary AML samples = assay: PDX model of AraC treatment in AML (NSG mice); format: in vivo
Method: NSG mice were produced at the Genotoul Anexplo platform at Toulouse (France) using breeders obtained from Charles River Laboratories. Transplanted mice were treated with antibiotic (Baytril) for the duration of the experiment. For experiments assessing the response to chemotherapy in PDX models, mice (6-9 weeks old) were sublethally treated with busulfan (30 mg/kg) 24 hours before injection of leukemic cells. Leukemia samples were thawed in 37° C. water bath, washed in IMDM 20% FBS, and suspended in Hank's Balanced Salt Solution at a final concentration of 1-10×10^6 cells per 200 μL for tail vein injection in NSG mice. Eight to 18 weeks after AML cell transplantation and when mice were engrafted (tested by flow cytometry on peripheral blood or bone marrow aspirates), NSG mice were treated by daily intraperitoneal injection of 60 mg/kg AraC or vehicle (PBS) for 5 days. AraC was kindly provided by the pharmacy of the TUH. Mice were sacrificed at day 8 to harvest human leukemic cells from murine bone marrow. For AML cell lines, 24 hours before injection of leukemic cells mice were treated with busulfan (20 mg/kg). Then cells were thawed and washed as previously described, suspended in HBSS at a final concentration of 2×106 per 200 μL before injection into bloodstream of NSG mice. […] Daily monitoring of mice for symptoms of disease (ruffled coat, hunched back, weakness, and reduced mobility) determined the time of killing for injected animals with signs of distress.
At the end of experiment, NSG mice were humanely killed in accordance with European ethics protocols. […] The number of AML cells/μL peripheral blood and number of AML cells in total cell tumor burden (in bone marrow and spleen) were determined by using CountBright beads (Invitrogen) using described protocol.
Proteins were resolved using 4% to 12% polyacrylamide gel electrophoresis Bis-Tris gels (Life Technology, Carlsbad, Calif.) and electrotransferred to nitrocellulose membranes. […] Quantification of chemiluminescent signals was done with the GeneTools software from Syngene.

[1] = MOLM-14 shCTR cells from AraC treated mice
[2] = MOLM-14 shCTR cells from vehicle-treated mice

| EC50 (MOLM-14 cells; [1]) [nM] | EC50 (MOLM-14 cells; [2]) [nM] | Structure (SMILES) | percentage of human cells in the bone marrow of mice (primary AML samples; AraC vs PBS treated mice) | levels of secreted ADM in the bone marrow of mice (primary AML samples; bone marrow supernatant, western blot, AraC vs PBS) | percentage of positive blasts for CALCRL (primary AML samples; minimal residual disease after 60 mg/kg/day AraC for 5 days, day 8, 5.6% without AraC) [%] |
| --- | --- | --- | --- | --- | --- |
| 61 | 29 | CC(=O)[C@]1(O)Cc2c(O)c3c(c(O)c2[C@@H](O[C@H]2C[C@H](N)[C@H](O)[C@H](C)O2)C1)C(=O)c1ccccc1C3=O [idarubicin] |  |  |  |
| 7000 | 2000 | Nc1ccn([C@@H]2O[C@H](CO)[C@@H](O)[C@@H]2O)c(=O)n1 [AraC, cytarabine] | reduced | reduced | 23 |
